US12241083B2, “Macs-based purification of stem cell-derived retinal pigment epithelium” (FUJIFILM Cellular Dynamics, Inc., priority 2015, dated 2025)
“Also recorded” adds a separate entry of the source.

Tests used:
Format in all cases: cell-based, human
[1] = tested on: iPSC-RPE cells; assay: Immunostaining of the iPSC-RPE monolayer (beta catenin, pERM, ZO1, RPE65, p27); conditions: for Production of mature RPE cells: conclusion from beta catenin and RPE65 staining; for p27 staining: treated cells vs untreated (untreated: weak p27 in nucleus), higher p27 suggests cell cycle exit; for Beta catenin staining: treated iPSC-RPE cells vs untreated (untreated: beta catenin in cytoplasm)
Text: The mature RPE cells were further developed into functional RPE cell monolayers that function as an intact RPE tissue by continued culture in the RPE-MM with additional small molecules such as primary cilium inducers like PGE2 or aphidicolin. Without being bound by theory, these primary cilium inducers suppress the canonical WNT pathway, induce cell cycle exit in the cells, and induce apical-basal polarization in the RPE monolayer. RPE maturity can alternatively be induced by canonical WNT pathway inhibitors such as IWP2 and endo-IWR1 that also induce cell cycle exit in RPE cells to promote RPE maturation. The cells were cultured in this medium for another 2-3 weeks to obtain mature and functional RPE cell monolayers. Thus, the presently disclosed methods provide mature RPE cells from pluripotent cells that can be consistently reproduced at a large scale for clinical applications.
(§1) For analysis of the mature RPE cells produced from treatment with PGE2, immunostaining of the RPE monolayer was performed to confirm the hexagonal architecture (FIGS. 4A-4C) of tight junctions by ZO1 staining as well as transmission electron microscopy of the iPSC-RPE cells (FIG. 4D).

[2] = tested on: iPSC-derived RPE population; assay: Inclusion of MEK inhibitor in RDM and RPE-MM during RPE differentiation; conditions: 1 μM in RDM and in RPE-MM (approximately Days 42 through 50)
Protocol: With regard to the methods described in Examples 2 and 3, the inclusion of PD0325901 at a concentration of 1 μM in media for certain windows of time beginning on Day 2 post iPSC plating through the end of the differentiation process, including post-MACS culture, may improve both purity of the RPE population (meaning a decrease in contaminating cells) as well as maturity of the resulting RPE population.

[3] = tested on: iPSC-RPE cells; assay: Transmission electron microscopy of iPSC-RPE cells; conditions: PGE2-treated vs untreated iPSC-RPE cells
Protocol: as §1

[4] = tested on: iPSC-derived RPE cells; assay: Barrier function: transepithelial electrical resistance (TER) and potential (TEP) of the RPE monolayer
Protocol: To measure the barrier function of the RPE cells generated by the present methods, transepithelial electrical potential (TEP) was measured the ion gradient across the monolayer generated by energy-driven ion pumps that regulate passage across the cells, and transepithelial electrical resistance (TER) measures resistance of substances through the paracellular space mainly through the fine structure of the tight junction structure (FIG. 7A).
Functionality of the mature RPE cells treated with IWP2 or endo-IWR1 was also characterized.
(§2) Next, it was tested whether an increase in the concentration of PGE2 from 50 μM to 100 μM in the RPE-MM+PGE2 medium would improve both purity of the RPE population (i.e., a decrease in contaminating cells) as well as maturity of the resulting RPE population. To determine the maturity and functionality of the 50 μM versus 100 μM PGE2 treated cultures, the barrier function in terms of transepithelial electrical resistance (TER) was measured (FIG. 7F) to compare the resistance of substances through the paracellular space as explained in Example 9. To determine the percentage of pure RPE cells obtained after treatment of the iPSC-derived RPE cultures with 50 μM or 100 μM in the RPE-MM+PGE2 medium, flow cytometry purity assay was performed for RPE-specific markers (FIG. 7G) as described in Example 6.

[5] = tested on: iPSC-derived RPE cultures; assay: Flow cytometry purity assay for RPE-specific markers
Protocol: The flow cytometry purity assay was performed to determine the percentage of RPE cells obtained by a sorting method of the present disclosure. An aliquot of the cell suspension collected from the MACS assay (2×10^6 cells in a 5 mL FACS tube per sample) was centrifuged at 400×g for 3 min. The cell pellet was resuspended in 1 mL of a stain (e.g., Live-Dead Red stain) and incubated in the dark at room temperature for 15 min. After incubation, 2 mL of wash buffer was added and the cells were centrifuged at 400×g for 3 min to remove any unbound stain. The cell pellet was resuspended in fixation buffer and incubated in the dark at room temperature for 15 min. After incubation, 2 mL of wash buffer were added and the cells were centrifuged at 400×g for 3 min and the supernatant was decanted. The cell pellet was resuspended in 2 mL of wash buffer to make a 1×10^6 cells/mL suspension and 200 μL of the cell suspension was transferred to a FACS tube. To each tube, 2 mL of perm buffer was added and cells were centrifuged at 400×g for 3 min. Primary antibodies for the RPE-specific markers were diluted in perm buffer and 100 μL diluted antibody solution was added to each tube. After incubation overnight at 4° C. in the dark, the cells were washed in 2 mL Penn Buffer two times. Secondary antibody solution was added to each of the tubes and cells were incubated at room temperature in the dark for 1-2 hours. […]
as §2, with “To determine the percentage of pure RPE cells obtained after treatment of the iPSC-derived RPE cultures with 50 μM or 100 μM in the RPE-MM+PGE2 medium, flow cytometry purity assay was performed for RPE-specific markers (FIG. 7G) as described in Example 6.” left out

[6] = treated iPSC-RPE cells vs untreated (untreated: low in cytoplasm)
[7] = day 75, 100 μM vs 50 μM PGE2 from day 54 to day 75

In the case of Cc1ccc2nc(NC(=O)CSc3nc4c(c(=O)n3-c3ccccc3)SCC4)sc2c1 [IWP2, N-(6-Methyl-2-benzothiazolyl)-2-[(3,4,6,7-tetrahydro-4-oxo-3-phenylthieno[3,2-d]pyrimidin-2-yl)thio]-acetamide], the “Production of mature RPE cells” value [1] is reported as “produces mature RPE cells”, the p27 staining [1] is reported as “higher p27 expression in the nucleus” and the Beta catenin staining [1] is reported as “decreased beta catenin; also recorded: beta catenin on cell membrane”. For the same compound, the RPE65 staining [1, 6] was “increased RPE65; also recorded: high in the cytoplasm”.

In the case of [Cl-].[Li+] [LiCl], the p27 staining [1] is reported as “weak p27 expression in the nucleus”, the Beta catenin staining [1] is reported as “beta catenin in the nucleus” and the RPE65 staining [1, 6] is reported as “no staining is seen”.

O=C(NOC[C@H](O)CO)c1ccc(F)c(F)c1Nc1ccc(I)cc1F [PD0325901, N-[(2R)-2,3-Dihydroxypropoxy]-3,4-difluoro-2-[(2-fluoro-4-iodophenyl)amino]-benzamide] was tested, and the “Purity and maturity of the RPE population” value [2] was “improve both purity and maturity”.

With CCCCC[C@H](O)/C=C/[C@H]1[C@H](O)CC(=O)[C@@H]1C/C=C\CCCC(=O)O [PGE2, prostaglandin E2] the “Production of mature RPE cells” value [1] was “produces mature RPE cells”, the ZO1 staining ([1]; treated and untreated iPSC-RPE cells) was “at the tight junctions in the plasma membrane” and the Beta catenin staining [1] was “decreased beta catenin; also recorded: at the membrane”. The RPE65 staining [1, 6] was “increased RPE65; also recorded: high in the cytoplasm of the treated cells”, the “pERM (Ezrin) staining” value [1, 6] was “high in the cytoplasm of the treated cells” and the “Apical processes in transmission electron micrographs” value [3] was “more extensive apical processes”. The “Functional response (TER)” value ([4]; 100 μM vs 50 μM PGE2 in RPE-MM+PGE2 medium, Day 54 to Day 75) was “progressive increase”, the “TEP and TER measurements (functionality)” value ([4]; treated RPE cells versus untreated RPE cells) was “increased functionality” and the “Purity and maturity of the RPE population” value ([5]; PGE2 raised from 50 μM to 100 μM in RPE-MM+PGE2, judged by TER and flow cytometry) was “promotes both the purity and maturity”. For the same compound, the “Expression of Best 1 marker (late maturity RPE marker)” value [5, 7] was “much higher” and the “Percent expression of Pmel17, Tryp1 and Cralbp (RPE-specific markers)” value [5, 7] was “comparable expression”.
